Active and inactive are the calls of the source.
Legend:
[1] = cells; assay type: functional
[2] = A Cell Based Secondary Assay to Explore Cytotoxicity in THP-1 Cells of Compounds that Modulate Mycobacterium tuberculosis in Media Containing Glycerol versus Media without Glycerol (2).; assay type: functional
[3] = target: T1, Insulin-degrading enzyme (Homo sapiens, UniProt P14735); assay: activators of recombinant IDE enzyme, dose response, counter-screen for IDE activator project, biochemical, fluorescence polarization (AID 588681)
T1 sequence (P14735 whole entry): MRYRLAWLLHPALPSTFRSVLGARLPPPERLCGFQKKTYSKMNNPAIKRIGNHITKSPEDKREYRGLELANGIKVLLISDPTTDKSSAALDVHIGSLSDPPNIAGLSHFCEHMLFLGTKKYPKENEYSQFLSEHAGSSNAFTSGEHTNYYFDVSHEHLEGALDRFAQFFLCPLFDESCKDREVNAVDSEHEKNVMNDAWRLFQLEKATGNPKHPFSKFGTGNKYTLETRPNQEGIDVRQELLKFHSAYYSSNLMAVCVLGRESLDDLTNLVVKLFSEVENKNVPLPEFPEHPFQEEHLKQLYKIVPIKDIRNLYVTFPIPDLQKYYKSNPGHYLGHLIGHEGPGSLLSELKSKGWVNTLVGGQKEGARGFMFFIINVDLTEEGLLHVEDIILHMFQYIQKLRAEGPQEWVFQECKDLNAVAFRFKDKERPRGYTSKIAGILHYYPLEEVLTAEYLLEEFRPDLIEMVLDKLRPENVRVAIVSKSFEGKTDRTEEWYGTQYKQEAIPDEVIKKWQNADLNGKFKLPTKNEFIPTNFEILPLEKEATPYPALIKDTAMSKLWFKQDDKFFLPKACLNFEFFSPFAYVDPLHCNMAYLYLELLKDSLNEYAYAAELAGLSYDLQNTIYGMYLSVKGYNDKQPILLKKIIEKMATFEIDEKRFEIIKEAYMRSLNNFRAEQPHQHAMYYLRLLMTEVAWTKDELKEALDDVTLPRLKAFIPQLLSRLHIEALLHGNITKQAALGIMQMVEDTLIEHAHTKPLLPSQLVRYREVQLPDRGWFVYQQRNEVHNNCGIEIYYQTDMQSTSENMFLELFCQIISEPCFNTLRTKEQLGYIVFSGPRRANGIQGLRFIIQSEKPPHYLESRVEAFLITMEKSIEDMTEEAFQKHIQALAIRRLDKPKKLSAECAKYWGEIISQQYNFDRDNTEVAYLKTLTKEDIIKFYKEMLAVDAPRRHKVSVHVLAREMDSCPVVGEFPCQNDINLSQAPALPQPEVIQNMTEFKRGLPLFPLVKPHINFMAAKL

[4] = target: T2, Histone-lysine N-methyltransferase NSD2 (Homo sapiens, UniProt O96028); assay type: biochemical
T2 sequence (O96028 whole entry): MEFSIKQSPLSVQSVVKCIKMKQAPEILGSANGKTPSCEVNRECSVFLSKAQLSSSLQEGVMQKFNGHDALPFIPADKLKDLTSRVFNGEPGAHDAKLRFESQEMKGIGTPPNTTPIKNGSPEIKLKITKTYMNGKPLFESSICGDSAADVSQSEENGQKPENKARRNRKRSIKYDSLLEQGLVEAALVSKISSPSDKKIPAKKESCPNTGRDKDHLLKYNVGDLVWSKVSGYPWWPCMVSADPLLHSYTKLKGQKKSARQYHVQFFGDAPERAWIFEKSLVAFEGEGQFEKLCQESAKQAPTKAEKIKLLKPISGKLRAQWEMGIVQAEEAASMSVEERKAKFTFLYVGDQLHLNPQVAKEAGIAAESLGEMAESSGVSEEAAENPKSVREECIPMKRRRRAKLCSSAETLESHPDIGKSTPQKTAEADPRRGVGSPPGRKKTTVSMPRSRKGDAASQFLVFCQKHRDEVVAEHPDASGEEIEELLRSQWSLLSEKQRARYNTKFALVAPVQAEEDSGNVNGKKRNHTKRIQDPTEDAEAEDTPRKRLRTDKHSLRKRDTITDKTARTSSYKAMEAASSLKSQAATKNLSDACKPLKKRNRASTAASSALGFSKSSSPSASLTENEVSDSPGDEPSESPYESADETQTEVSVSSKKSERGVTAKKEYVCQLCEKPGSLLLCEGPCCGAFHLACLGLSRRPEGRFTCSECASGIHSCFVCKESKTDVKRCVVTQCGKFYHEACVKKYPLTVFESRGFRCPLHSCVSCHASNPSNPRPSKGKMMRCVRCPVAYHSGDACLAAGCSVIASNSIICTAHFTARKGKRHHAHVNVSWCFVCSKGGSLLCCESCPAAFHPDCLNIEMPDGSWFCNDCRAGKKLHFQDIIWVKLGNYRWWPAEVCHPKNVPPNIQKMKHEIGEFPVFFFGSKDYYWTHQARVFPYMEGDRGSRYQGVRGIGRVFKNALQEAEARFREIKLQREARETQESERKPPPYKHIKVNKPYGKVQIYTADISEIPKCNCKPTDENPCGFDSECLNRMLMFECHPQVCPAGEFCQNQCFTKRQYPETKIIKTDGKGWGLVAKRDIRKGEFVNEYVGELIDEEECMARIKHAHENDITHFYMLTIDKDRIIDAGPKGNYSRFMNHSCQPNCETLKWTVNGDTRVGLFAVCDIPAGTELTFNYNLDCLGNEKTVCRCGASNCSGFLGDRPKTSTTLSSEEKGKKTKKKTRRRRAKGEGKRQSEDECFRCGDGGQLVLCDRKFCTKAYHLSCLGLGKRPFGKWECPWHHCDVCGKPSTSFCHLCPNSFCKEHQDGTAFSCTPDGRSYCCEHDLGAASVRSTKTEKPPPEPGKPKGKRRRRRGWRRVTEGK

[5] = target: Ras and Rab interactor 1/Tyrosine-protein kinase ABL1 (Homo sapiens, UniProt P00519+Q13671); assay type: functional;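 further: biochemical TR-FRET dose-response test measuring inhibition of binding between Rin1 and Abl proteins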
Chain of Ras and Rab interactor 1/Tyrosine-protein kinase ABL1 (P00519 whole entry): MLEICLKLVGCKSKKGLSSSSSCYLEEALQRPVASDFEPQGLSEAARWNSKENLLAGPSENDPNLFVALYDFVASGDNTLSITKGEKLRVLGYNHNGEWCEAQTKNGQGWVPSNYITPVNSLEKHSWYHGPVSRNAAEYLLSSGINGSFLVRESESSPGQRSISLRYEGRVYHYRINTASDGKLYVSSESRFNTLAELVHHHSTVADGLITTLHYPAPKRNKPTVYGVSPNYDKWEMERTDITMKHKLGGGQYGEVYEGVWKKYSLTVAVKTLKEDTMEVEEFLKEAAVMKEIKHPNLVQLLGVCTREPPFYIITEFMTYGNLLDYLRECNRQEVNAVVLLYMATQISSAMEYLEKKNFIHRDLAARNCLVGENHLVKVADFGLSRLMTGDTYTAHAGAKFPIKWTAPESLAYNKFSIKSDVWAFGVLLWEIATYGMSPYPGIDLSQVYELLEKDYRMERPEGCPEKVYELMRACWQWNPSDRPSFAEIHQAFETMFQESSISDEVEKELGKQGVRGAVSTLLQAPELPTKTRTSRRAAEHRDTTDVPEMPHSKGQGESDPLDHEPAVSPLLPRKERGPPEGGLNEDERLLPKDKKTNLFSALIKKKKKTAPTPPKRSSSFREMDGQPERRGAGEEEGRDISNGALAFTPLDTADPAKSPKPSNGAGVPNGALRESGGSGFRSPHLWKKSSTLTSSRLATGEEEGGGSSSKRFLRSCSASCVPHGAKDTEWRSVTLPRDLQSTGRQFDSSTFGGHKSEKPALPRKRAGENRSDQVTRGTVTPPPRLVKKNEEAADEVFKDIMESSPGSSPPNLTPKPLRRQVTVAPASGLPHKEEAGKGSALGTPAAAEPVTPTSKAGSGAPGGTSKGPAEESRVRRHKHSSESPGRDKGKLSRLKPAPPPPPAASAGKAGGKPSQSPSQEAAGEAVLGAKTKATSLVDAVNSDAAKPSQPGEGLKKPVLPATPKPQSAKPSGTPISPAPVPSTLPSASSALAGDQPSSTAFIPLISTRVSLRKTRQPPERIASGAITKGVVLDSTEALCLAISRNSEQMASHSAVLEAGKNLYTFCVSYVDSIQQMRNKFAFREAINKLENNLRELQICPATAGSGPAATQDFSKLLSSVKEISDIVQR
Chain of Ras and Rab interactor 1/Tyrosine-protein kinase ABL1 (Q13671 whole entry): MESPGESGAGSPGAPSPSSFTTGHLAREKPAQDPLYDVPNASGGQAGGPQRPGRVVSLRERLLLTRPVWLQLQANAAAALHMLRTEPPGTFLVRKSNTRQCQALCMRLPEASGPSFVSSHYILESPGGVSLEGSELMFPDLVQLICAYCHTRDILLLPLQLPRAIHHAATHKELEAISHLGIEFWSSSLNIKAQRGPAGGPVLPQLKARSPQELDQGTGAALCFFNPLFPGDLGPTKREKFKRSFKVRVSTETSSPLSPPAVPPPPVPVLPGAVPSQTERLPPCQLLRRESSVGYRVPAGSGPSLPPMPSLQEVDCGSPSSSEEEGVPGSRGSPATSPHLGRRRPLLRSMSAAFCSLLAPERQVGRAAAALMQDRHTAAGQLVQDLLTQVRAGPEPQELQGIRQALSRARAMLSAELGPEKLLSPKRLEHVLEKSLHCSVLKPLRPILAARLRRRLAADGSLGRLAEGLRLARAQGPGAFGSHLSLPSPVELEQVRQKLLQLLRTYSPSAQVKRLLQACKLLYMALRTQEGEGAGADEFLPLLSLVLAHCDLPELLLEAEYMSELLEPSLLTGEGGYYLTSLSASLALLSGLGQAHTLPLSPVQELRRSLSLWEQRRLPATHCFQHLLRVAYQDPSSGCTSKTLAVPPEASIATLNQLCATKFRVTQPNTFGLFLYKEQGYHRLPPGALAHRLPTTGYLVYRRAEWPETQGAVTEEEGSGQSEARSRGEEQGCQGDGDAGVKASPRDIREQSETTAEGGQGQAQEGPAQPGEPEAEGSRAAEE

[6] = target: Nonstructural protein 1 (Influenza A virus, UniProt Q194T2); assay type: functional, Influenza A virus (A/California/07/2009(H1N1))
Chain of Nonstructural protein 1 (Q194T2 whole entry): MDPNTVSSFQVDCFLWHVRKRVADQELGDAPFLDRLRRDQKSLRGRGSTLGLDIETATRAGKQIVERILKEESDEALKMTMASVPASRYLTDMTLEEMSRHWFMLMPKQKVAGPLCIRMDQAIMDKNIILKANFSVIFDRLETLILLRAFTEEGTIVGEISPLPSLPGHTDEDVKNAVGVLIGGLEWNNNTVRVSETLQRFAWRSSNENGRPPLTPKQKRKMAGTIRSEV

[7] = target: T1, Insulin-degrading enzyme; assay: activators of endogenous IDE in HEK cells, dose response, cell-based, fluorescence polarization (AID 588439); assay type: functional
[8] = target: Potassium voltage-gated channel subfamily KQT member 2 (Rattus norvegicus, UniProt O88943); assay: KCNQ2 potassium channel inhibitors, dose response, cell-based, automated electrophysiology, set II, rat KCNQ2 (AID 588637); assay type: functional
[9] = target: G-protein coupled receptor 55 (Homo sapiens, UniProt Q9Y2T6); assay: GPR55 antagonists blocking LPI-driven arrestin recruitment, primary screen, imaging, U2OS, beta-arrestin-GFP, LPI agonist (AID 2013); assay type: functional;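 further: antagonist potency measured as reduced agonist-driven arrestin aggregation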
Chain of G-protein coupled receptor 55 (Q9Y2T6 whole entry, the tested form may be a part): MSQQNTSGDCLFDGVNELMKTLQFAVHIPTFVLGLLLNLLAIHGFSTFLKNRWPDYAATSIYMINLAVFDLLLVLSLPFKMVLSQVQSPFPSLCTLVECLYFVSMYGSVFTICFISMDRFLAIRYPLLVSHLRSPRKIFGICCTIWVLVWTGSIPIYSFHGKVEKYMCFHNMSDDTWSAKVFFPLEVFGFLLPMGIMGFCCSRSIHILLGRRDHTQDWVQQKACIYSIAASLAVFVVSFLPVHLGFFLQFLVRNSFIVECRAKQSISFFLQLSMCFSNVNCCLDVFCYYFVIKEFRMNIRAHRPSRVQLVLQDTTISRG

[10] = target: T3, Oxysterols receptor LXR-beta (Homo sapiens, UniProt P55055); assay type: functional, cell-based;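 further: Cell-based luminescence dose-response assay of agonist activity at LXR, run as a confirmatory counterscreen to a daf-12 agonist screen; HEK293 cells with Gal4-LXR fusion and GAL4-driven luciferase reporter; agonist potency from rising luciferase signal of a Gal4-LXR reporter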
T3 sequence (P55055 whole entry): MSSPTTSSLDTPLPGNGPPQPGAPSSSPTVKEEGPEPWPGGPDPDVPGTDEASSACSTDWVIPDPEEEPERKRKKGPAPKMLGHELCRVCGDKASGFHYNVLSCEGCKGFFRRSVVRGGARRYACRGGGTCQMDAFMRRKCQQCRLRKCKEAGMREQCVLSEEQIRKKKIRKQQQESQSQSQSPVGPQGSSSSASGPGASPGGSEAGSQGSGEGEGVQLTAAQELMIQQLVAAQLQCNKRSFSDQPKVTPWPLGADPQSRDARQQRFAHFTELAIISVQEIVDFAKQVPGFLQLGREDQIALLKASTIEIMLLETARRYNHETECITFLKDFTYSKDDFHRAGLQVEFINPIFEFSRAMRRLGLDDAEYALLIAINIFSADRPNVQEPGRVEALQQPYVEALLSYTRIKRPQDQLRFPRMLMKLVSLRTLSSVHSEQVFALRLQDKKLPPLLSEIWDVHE

[11] = target: T4, DNA repair protein RAD52 homolog (Homo sapiens, UniProt P43351); assay type: functional, biochemical
T4 sequence (P43351 whole entry): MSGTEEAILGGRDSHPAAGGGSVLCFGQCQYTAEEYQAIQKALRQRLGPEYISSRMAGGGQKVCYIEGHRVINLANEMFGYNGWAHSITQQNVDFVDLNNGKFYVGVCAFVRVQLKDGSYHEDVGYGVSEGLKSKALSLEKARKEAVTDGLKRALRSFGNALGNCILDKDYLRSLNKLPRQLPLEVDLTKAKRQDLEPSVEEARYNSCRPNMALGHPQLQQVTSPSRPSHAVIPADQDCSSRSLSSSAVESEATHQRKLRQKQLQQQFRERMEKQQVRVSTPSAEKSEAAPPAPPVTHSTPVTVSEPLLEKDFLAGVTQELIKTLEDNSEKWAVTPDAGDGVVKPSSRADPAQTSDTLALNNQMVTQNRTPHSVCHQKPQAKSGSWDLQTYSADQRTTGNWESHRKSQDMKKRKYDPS

[12] = tested on: A-375; assay: A375 melanoma cell viability reduction, dose response, counter-screen for MITF modulator project, cherry-pick samples, set 2 (AID 540335); assay type: functional, cell-based; conditions: Homo sapiens
[13] = target: DNA (cytosine-5)-methyltransferase 1 (Homo sapiens, UniProt P26358); assay: DNMT1 methyltransferase inhibitors, confirmation, biochemical, fluorescent molecular beacon (AID 602386); assay type: functional
Chain of DNA (cytosine-5)-methyltransferase 1 (P26358 whole entry): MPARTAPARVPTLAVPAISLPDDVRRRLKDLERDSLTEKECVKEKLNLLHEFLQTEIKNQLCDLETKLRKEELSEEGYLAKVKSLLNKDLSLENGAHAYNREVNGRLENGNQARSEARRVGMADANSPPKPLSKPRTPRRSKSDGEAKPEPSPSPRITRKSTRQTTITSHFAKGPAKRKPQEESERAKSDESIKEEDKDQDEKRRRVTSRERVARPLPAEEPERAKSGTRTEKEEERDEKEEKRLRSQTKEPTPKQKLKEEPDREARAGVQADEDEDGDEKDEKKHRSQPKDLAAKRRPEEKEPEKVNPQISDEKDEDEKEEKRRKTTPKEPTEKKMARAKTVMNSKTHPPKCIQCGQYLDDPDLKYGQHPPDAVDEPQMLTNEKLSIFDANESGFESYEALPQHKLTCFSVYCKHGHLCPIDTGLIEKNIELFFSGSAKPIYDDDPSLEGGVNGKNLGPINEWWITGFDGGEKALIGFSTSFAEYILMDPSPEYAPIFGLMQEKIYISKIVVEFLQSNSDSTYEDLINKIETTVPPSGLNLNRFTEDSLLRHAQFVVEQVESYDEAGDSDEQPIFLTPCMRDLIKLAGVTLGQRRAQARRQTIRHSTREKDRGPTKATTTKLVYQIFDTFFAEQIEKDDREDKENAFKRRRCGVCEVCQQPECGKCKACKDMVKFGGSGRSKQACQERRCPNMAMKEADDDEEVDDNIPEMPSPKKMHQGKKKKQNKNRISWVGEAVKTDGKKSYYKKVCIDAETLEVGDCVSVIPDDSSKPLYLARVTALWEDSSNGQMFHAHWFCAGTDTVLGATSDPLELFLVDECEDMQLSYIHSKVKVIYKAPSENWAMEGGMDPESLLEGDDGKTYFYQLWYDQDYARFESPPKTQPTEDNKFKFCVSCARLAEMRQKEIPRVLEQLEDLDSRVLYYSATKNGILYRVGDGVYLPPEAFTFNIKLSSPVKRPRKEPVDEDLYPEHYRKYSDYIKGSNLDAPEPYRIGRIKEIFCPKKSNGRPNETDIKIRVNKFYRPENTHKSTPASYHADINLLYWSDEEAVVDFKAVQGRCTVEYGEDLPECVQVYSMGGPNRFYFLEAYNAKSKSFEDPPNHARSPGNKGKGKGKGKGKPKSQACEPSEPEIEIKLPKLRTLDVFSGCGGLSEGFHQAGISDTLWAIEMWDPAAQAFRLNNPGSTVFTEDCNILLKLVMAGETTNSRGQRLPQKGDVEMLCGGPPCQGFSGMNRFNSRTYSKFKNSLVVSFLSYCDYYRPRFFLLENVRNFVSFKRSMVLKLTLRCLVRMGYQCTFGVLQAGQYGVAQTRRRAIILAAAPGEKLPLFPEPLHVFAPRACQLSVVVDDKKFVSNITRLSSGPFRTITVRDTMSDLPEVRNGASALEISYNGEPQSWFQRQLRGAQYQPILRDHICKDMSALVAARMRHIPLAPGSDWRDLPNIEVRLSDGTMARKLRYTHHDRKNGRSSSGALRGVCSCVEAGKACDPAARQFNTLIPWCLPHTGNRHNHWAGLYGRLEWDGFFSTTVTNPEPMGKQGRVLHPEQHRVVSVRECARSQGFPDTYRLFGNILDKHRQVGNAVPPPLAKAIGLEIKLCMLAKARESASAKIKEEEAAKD

[14] = target: 72 kDa type IV collagenase (Homo sapiens, UniProt P08253); assay: Dose Response validation of uHTS RPN11 inhibitor hits using a MMP-2 Fluorescence assay.; assay type: functional
[15] = target: T5, Microphthalmia-associated transcription factor (Homo sapiens, UniProt O75030); assay: TRPM1 promoter luciferase signal decrease, dose response, MITF inhibitor project, cell-based, SK-MEL-5, cherry-picked, set 3 (AID 493073); assay type: functional
T5 sequence (O75030 whole entry): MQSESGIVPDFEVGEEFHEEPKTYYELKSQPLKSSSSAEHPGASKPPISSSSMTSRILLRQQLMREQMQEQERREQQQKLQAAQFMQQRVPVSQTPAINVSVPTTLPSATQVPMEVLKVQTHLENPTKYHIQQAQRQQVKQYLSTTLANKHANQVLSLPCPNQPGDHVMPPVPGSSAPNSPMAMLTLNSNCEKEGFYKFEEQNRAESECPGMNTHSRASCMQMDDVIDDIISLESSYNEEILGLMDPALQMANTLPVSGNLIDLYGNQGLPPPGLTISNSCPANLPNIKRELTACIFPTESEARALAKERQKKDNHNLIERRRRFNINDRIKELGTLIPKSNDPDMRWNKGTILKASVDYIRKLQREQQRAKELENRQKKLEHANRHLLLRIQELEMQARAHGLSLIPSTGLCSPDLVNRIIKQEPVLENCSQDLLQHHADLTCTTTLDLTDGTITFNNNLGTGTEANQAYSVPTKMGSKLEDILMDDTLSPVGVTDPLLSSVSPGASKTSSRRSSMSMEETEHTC

[16] = target: 26S proteasome non-ATPase regulatory subunit 14 (Homo sapiens, UniProt O00487); assay: inhibition of proteasome subunit RPN11 – biochemical, fluorescence polarization, uHTS hits, confirmation (AID 602368); assay type: functional
Chain of 26S proteasome non-ATPase regulatory subunit 14 (O00487 whole entry): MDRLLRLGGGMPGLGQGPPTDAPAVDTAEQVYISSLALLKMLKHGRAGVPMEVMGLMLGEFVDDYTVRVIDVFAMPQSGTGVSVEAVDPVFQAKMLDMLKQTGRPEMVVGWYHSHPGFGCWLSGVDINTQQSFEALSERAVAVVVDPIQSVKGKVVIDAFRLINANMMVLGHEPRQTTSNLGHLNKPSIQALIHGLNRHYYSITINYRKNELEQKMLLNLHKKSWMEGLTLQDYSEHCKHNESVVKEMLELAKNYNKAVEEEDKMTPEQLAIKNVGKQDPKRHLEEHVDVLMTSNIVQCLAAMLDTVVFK

[17] = tested on: HEK293; assay: cells; conditions: Homo sapiens
[18] = target: Prothrombin (Bos taurus, UniProt P00735); assay: thrombin inhibition, dose response, biochemical, fluorescence polarization, uHTS hits (AID 602369); assay type: functional
[19] = tested on: INS1; assay: beta cell apoptosis inhibitors, cytokine rescue, dose response, luminescence, retest (AID 449756); assay type: functional, cell-based; conditions: Rattus norvegicus;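 further: cell death triggered by IL-1 beta plus TNF-alpha plus IFN-gamma mixture; protective hits raise ATP signal compared with cytokine alone wells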
[20] = inhibitors of intracellular T. cruzi replication, confirmation, NIH3T3 host cells, beta-gal luminescence (AID 2044); assay type: functional, cell-based;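 further: intracellular parasites grown in NIH/3T3 mouse fibroblasts as host cells; luminescent beta-galactosidase reporter signal from transgenic T. cruzi replicating inside host cells; inhibitors lower the luminescence signal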
[21] = cells
[22] = tested on: HEK293; assay: cells; conditions: Homo sapiens; remark: listed apart in the source
[23] = target: Adenosylmethionine-8-amino-7-oxononanoate aminotransferase (Mycobacterium tuberculosis, UniProt P9WQ81); assay: Mycobacterium tuberculosis BioA enzyme inhibitor Measured in Biochemical System Using Plate Reader - 2163-02_Inhibitor_Dose_CherryPick_Activity.; assay type: functional, Mycobacterium tuberculosis UT205
Chain of Adenosylmethionine-8-amino-7-oxononanoate aminotransferase (P9WQ81 whole entry): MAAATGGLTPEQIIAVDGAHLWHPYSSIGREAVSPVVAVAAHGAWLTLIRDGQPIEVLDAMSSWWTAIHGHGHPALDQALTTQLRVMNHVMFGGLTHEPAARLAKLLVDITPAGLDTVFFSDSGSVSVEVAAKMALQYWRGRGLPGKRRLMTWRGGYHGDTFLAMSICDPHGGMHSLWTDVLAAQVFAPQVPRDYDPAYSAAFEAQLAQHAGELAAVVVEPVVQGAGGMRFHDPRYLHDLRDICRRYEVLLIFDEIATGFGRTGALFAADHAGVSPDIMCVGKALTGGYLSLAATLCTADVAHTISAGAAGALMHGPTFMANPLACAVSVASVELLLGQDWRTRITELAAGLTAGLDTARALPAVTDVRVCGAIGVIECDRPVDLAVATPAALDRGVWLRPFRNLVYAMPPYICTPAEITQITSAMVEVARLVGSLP

[24] = target: T6, Low molecular weight phosphotyrosine protein phosphatase (Homo sapiens, UniProt P24666); assay type: functional; conditions: read-out: IC50_Mean
T6 sequence (P24666 whole entry): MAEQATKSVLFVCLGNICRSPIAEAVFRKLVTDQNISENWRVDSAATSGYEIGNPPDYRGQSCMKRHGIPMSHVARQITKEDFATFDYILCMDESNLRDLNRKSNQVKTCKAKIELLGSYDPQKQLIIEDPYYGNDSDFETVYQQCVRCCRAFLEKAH

[25] = target: T6, Low molecular weight phosphotyrosine protein phosphatase; assay type: functional; conditions: read-out: IC50_Mean; remark: listed apart in the source

CCOC(=O)COn1c2c(c3c4no[n+]([O-])c4ccc31)CCCC2
IC50 [1]: 5.49 µM (active) | CC50 [2]: > 100 µM (active)

Cc1[nH]c(=O)[nH]c1C(=O)CCCCC(=O)O
EC50 [3]: 16.9 µM (inactive) | AC50 [4]: 10.2 µM (active) | IC50 [5]: 0.0174 µM (active) | IC50 [6]: 2.14 µM (active) | EC50 [7]: 12.2 µM (inactive)

COc1ccc(Cl)cc1C(=O)NC(=S)Nc1ccccc1N1CCOCC1
IC50 [8]: 5.98 µM (active) | IC50 [9]: 0.825 µM (active)

Cc1cc(C)c2c(N)c3cccc(C)c3nc2n1
EC50 [10]: > 67.5 µM (inactive) | AC50 [11]: 2.24 µM (active) | AC50 [12]: 3.39 µM (active) | IC50 [13]: > 99 µM (inactive) | IC50 [14]: > 100 µM (inactive) | AC50 [15]: 3.21 µM (active) | IC50 [16]: 13.1 µM (active) | EC50 [17]: > 2.21 µM (active) | IC50 [18]: > 100 µM (inactive) | AC50 [19]: 1.62 µM (active) | EC50 [20]: 1.27 µM (active) | EC50 [21]: > 67.5 µM (inactive) | EC50 [22]: > 59.6 µM (inactive)

CCCC(=O)Nc1cccc(NC(=O)c2ccc(C)c([N+](=O)[O-])c2)c1
AC50 [23]: 1.96 µM (active)

Oc1c(/C=N/c2ccc(Cl)cc2)cnn1-c1cccc(Cl)n1
IC50 [24]: 17.1 µM (active) | IC50 [25]: 15.4 µM (active)
